Reference: US20230263822A1, “MODULATION OF FACTOR 11 EXPRESSION” (Ionis Pharmaceuticals, Inc., priority 2008, published 2023)

Columns and labels:
Assay type in all cases: in vivo, BALB/c mice
[1] = system: platelet factor-4 (PF-4); assay: Thrombus formation by PF-4 real-time PCR, FeCl3 induced venous thrombosis model vs warfarin (Example 11); conditions: for PF-4 in vena cava, percentage as compared to PBS controls (thrombus formation): + FeCl3
Protocol: Two control groups of BALB/c mice were treated with PBS, administered subcutaneously twice a week for 3 weeks. Two days after the last dose of PBS, mice in both groups were anesthetized with 150 mg/kg ketamine mixed with 10 mg/kg xylazine administered by intraperitoneal injection. Thrombus formation was induced with FeCl3 in all groups of mice except the first control group.
In mice undergoing FeCl3 treatment, thrombus formation was induced by applying a piece of filter paper (2×4 mm) pre-saturated with 10% FeCl3 solution directly on the vena cava. After 3 minutes of exposure, the filter paper was removed. Thirty minutes after the filter paper application, a fixed length of the vein containing the thrombus was dissected out for platelet analysis. Liver was collected for RNA analysis.
Real-time PCR quantification of platelet factor-4 (PF-4) was used to quantify platelets in the vena cava as a measure of thrombus formation.

[2] = system: platelet factor-4 (PF-4); assay: Thrombus formation by PF-4, FeCl3 induced VT model, combination with PLAVIX (Example 26); conditions: ISIS 404071 20 mg/kg, PLAVIX 0 mg/kg
Protocol: The combination of ISIS 404071 and PLAVIX was evaluated in the FeCl3 induced VT mouse model. Four groups of eight BALB/c mice, weighing approximately 25 g each, were treated with 6.25 mg/kg, 12.50 mg/kg, 25.00 mg/kg, or 50.00 mg/kg of PLAVIX. Mice were given two doses of PLAVIX on day one and one dose of PLAVIX on day two, two hours before surgery.
After the last dose of ISIS 404071, mice were treated with 6.25 mg/kg, 12.50 mg/kg, 25.00 mg/kg, or 50.00 mg/kg of PLAVIX. Two doses of PLAVIX were administered to the mice on day one and one dose of PLAVIX was administered on day two, two hours before surgery.
Two control groups of eight BALB/c mice, weighing approximately 25 g each, were not treated with ISIS 404071 or PLAVIX. […] Thrombus formation was induced with FeCl3 in all of the mice except the first […] control groups. All mice were anesthetized with 150 mg/kg of ketamine mixed with 10 mg/kg of xylazine administered by intraperitoneal injection.
After 3 minutes of exposure, the filter paper was removed. Thirty minutes after the filter paper application, a fixed length of the vein containing the thrombus was dissected out for platelet analysis.
Real-time PCR quantification of PF-4 was used to quantify platelets in the vena cava as a measure of thrombus formation. […] Therefore, the combination of anti-platelet therapy with Factor 11 ASO increases antithrombotic activity. Data is presented as percent of PF-4 mRNA as compared to the PBS+ FeCl3 control.

[3] = system: mouse Factor 11 mRNA; assay: Sense-oligonucleotide antidote: Factor 11 mRNA in liver (Example 23); conditions: for Percent inhibition of mouse Factor 11 mRNA compared to PBS control: antisense 40 mg/kg s.c. twice a week for three weeks, ISIS 418026 90 mg/kg single injection where given
Protocol: The effect of the specific sense oligonucleotide to ISIS 404071 as an antidote was tested in BALB/c mice. In a first cohort, ISIS 404071 was administered subcutaneously to BALB/c mice twice a week for three weeks at a dose of 40 mg/kg. In a second cohort, ISIS 404057 was administered subcutaneously to BALB/c mice twice a week for three weeks at a dose of 40 mg/kg. The ISIS 404071 specific antidote, ISIS 418026 ([…]; complementary to ISIS 404071), incorporated herein as SEQ ID NO: 13, was administered to both cohorts subcutaneously in a single injection of 90 mg/kg 48 hours after the final treatment of ISIS 404071 or 404057. In a third cohort, ISIS 404071 was administered subcutaneously to BALB/c mice twice a week for three weeks at a dose of 40 mg/kg. Following the last treatment of ISIS 404071, mice were injected subcutaneously injected with PBS. In a fourth cohort, ISIS 404057 was administered subcutaneously to BALB/c mice twice a week for three weeks at a dose of 40 mg/kg. Following the last treatment of ISIS 404057, mice were injected subcutaneously injected with PBS. Following antidote administration, a set of 4 mice from each cohort were sacrificed at 12 hours, 1 day, 2 days, 3 days, 7 days, and 14 days. Whole liver was collected for RNA analysis and PPP was collected for aPTT analysis.
RNA was extracted from liver tissue for real-time PCR analysis of Factor 11. Results are presented as percent inhibition of Factor 11, relative to PBS control.

For “ISIS 404071: antisense oligonucleotide targeted to murine Factor 11 mRNA, TGGTAATCCACTTTCAGAGG, target start site 869 (chemistry not given here)”, the “PF-4 in vena cava as measure of thrombus formation” value ([1]; FeCl3 induced VT model, vs PBS control) was “dose-dependent reduction of PF-4 in comparison to the PBS control for dosages of 5 mg/kg and higher”, the “PF-4 in vena cava, percentage as compared to PBS controls (thrombus formation)” value (shortened to “PF-4 in vena cava, percentage”) ([1]; ISIS 404071 1.25 mg/kg subcutaneously twice a week for 3 weeks) was 143% and the “PF-4 in vena cava, percentage” value ([1]; ISIS 404071 5 mg/kg subcutaneously twice a week for 3 weeks) was 95%. For the same substance, the “PF-4 in vena cava, percentage” value ([1]; ISIS 404071 10 mg/kg subcutaneously twice a week for 3 weeks) was 21%, the “PF-4 in vena cava, percentage” value ([1]; ISIS 404071 20 mg/kg subcutaneously twice a week for 3 weeks) was 37% and the “PF-4 in vena cava, percentage” value ([1]; ISIS 404071 40 mg/kg subcutaneously twice a week for 3 weeks) was 20%. For the same substance, the “PF-4 mRNA, percent as compared to the PBS + FeCl3 control (thrombus formation)” value ([2]; + FeCl3) was 40%, the “PF-4 mRNA, percent as compared to the PBS + FeCl3 control (thrombus formation)” value ([2]; − FeCl3) was 27% and the “Percent inhibition of mouse Factor 11 mRNA compared to PBS control” value (“Percent inhibition” for short) ([3]; 12 hours after antidote/PBS) was 93%. For the same substance, the “Percent inhibition” value ([3]; 1 day after antidote/PBS) was 90%, the “Percent inhibition” value ([3]; 2 days after antidote/PBS) was 89% and the “Percent inhibition” value ([3]; 3 days after antidote/PBS) was 88%. The “Percent inhibition” value ([3]; 7 days after antidote/PBS) was 81%, the “Percent inhibition” value ([3]; 14 days after antidote/PBS) was 67% and the “inhibition of Factor 11 mRNA over the 14 day observation period” value ([3]; BALB/c mice, ISIS 404071 40 mg/kg, with or without ISIS 418026 90 mg/kg) was “progressive decrease in inhibition”.
